TGI data for ten compounds are collected here from PubChem BioAssay (NCI).

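Protocol summary: plate cells (96-well), add compound at 5 concentrations, incubate 48 h, interpolate endpoints linearly. TGI: concentration producing complete growth inhibition.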 Where only a bound is given, the exact number is not on record here.

Among the test systems are A549 NSCLC; ACHN renal; COLO 205 colon; HCT-15 colon; HOP-62 NSCLC; IGROV1 ovarian; M14 melanoma; MOLT-4 leukemia; NCI-H460 lung; RPMI-8226 leukemia; SF-295 CNS; SK-MEL-28 melanoma; SN12C renal; UO-31 renal; CCRF-CEM leukemia; HL-60(TB) leukemia; KM12 colon; KM20L2 colon; MALME-3M melanoma; SNB-78 CNS.
Experiment in all cases: NCI anticancer screen, dose series, 48 h

For the compound `CCN(CC)CCNC(=O)c1cc2cc(NC(=O)c3cc4cc([N+](=O)[O-])ccc4[nH]3)ccc2[nH]1`, the TGI is greater than 100 µM in the assay with A549 NSCLC; greater than 100 µM in the assay on ACHN renal; 28.9 µM in the assay with COLO 205 colon; greater than 100 µM in the assay on HCT-15 colon; greater than 100 µM in the assay on HOP-62 NSCLC; greater than 100 µM in the assay with IGROV1 ovarian. In addition, the TGI in the assay with M14 melanoma was greater than 100 µM; in the assay with MOLT-4 leukemia, greater than 100 µM; in the assay with NCI-H460 lung, greater than 100 µM; in the assay with RPMI-8226 leukemia, 9.63 µM; with SF-295 CNS it was 65.6 µM; with SK-MEL-28 melanoma it was 66.8 µM. Further, the TGI in the assay with SN12C renal and with UO-31 renal was greater than 100 µM in each case.

For the compound `Nc1nc(SCCC/C=C/I)nc2c1ncn2C1OC(COP(=O)(O)O)C(O)C1O` (stereo not given), the TGI with A549 NSCLC, with ACHN renal, in the assay with CCRF-CEM leukemia, in the assay with COLO 205 colon, with HCT-15 colon and with HL-60(TB) leukemia was greater than 100 µM each time. Also, the TGI with HOP-62 NSCLC, with IGROV1 ovarian, in the assay with KM12 colon, in the assay on KM20L2 colon, in the assay on M14 melanoma and in the assay on MALME-3M melanoma was greater than 100 µM in each case. For the same compound, the TGI with MOLT-4 leukemia, in the assay on NCI-H460 lung, in the assay on SF-295 CNS, in the assay with SK-MEL-28 melanoma, in the assay with SN12C renal and in the assay with SNB-78 CNS was greater than 100 µM throughout.

Regarding `CCCCCCCC/C=C\CCCCCCCCCCCC(=O)O`, the TGI is greater than 125 µM with A549 NSCLC; 57.5 µM with CCRF-CEM leukemia; 40.4 µM in the assay with COLO 205 colon; 122 µM in the assay with HCT-15 colon; 34.6 µM in the assay with HL-60(TB) leukemia; 63.6 µM in the assay with HOP-62 NSCLC. Besides, the TGI in the assay on IGROV1 ovarian was greater than 125 µM; with KM12 colon, 70.8 µM; in the assay on KM20L2 colon, 122 µM; in the assay on MALME-3M melanoma, greater than 125 µM; with MOLT-4 leukemia, 95.2 µM; in the assay with NCI-H460 lung it was 34.9 µM. The TGI was 110 µM with RPMI-8226 leukemia; 116 µM in the assay on SF-295 CNS; 108 µM in the assay with SK-MEL-28 melanoma; greater than 98 µM in the assay with SN12C renal; greater than 115 µM in the assay with SNB-78 CNS; greater than 125 µM in the assay on UO-31 renal.

For `CC1=C(Cl)C=CP(=O)(Oc2ccccc2)C1` (stereo not given), the TGI in the assay on A549 NSCLC is greater than 100 µM; in the assay on ACHN renal it was greater than 100 µM; in the assay on CCRF-CEM leukemia, greater than 10 µM; in the assay on COLO 205 colon it was greater than 100 µM; with HCT-15 colon, greater than 100 µM; with HL-60(TB) leukemia it was greater than 10 µM. In addition, the TGI in the assay with HOP-62 NSCLC was greater than 100 µM; in the assay on IGROV1 ovarian, greater than 100 µM; with KM12 colon, greater than 100 µM; with KM20L2 colon, greater than 100 µM; with M14 melanoma, 38.2 µM; with MALME-3M melanoma it was greater than 100 µM. The TGI in the assay with MOLT-4 leukemia is greater than 10 µM; in the assay on NCI-H460 lung, greater than 100 µM; in the assay with SF-295 CNS, greater than 100 µM; in the assay with SK-MEL-28 melanoma, greater than 100 µM; in the assay with SNB-78 CNS, greater than 100 µM; in the assay with UO-31 renal, greater than 100 µM.

For `N=c1nnc2ccc(Cl)cc2n1O`, the TGI in the assay on ACHN renal was greater than 100 µM; in the assay on CCRF-CEM leukemia it was greater than 100 µM; with COLO 205 colon, 64.5 µM; in the assay on HCT-15 colon it was greater than 100 µM; in the assay on HL-60(TB) leukemia, greater than 100 µM; in the assay on HOP-62 NSCLC, greater than 100 µM. Further, the TGI in the assay with IGROV1 ovarian, with KM12 colon, in the assay with M14 melanoma, with MALME-3M melanoma, in the assay on MOLT-4 leukemia and in the assay on RPMI-8226 leukemia was greater than 100 µM each time. Also, the TGI in the assay on SF-295 CNS, in the assay on SK-MEL-28 melanoma, in the assay with SN12C renal and with UO-31 renal was greater than 100 µM throughout.

Turning to `Cc1ccc(NC(=O)CC2Sc3ccccc3NC2=O)cc1C` (stereo not given), the TGI with A549 NSCLC was greater than 100 µM; with ACHN renal it was greater than 100 µM; with CCRF-CEM leukemia, 92.3 µM; with COLO 205 colon, greater than 100 µM; in the assay with HCT-15 colon, greater than 100 µM; in the assay with HL-60(TB) leukemia, 66.1 µM. Moreover, the TGI in the assay with HOP-62 NSCLC, with IGROV1 ovarian, in the assay with KM12 colon, with KM20L2 colon, in the assay with M14 melanoma and in the assay with MALME-3M melanoma was greater than 100 µM in each case. The TGI with MOLT-4 leukemia, in the assay on NCI-H460 lung, with RPMI-8226 leukemia, with SF-295 CNS, with SK-MEL-28 melanoma and with SN12C renal was greater than 100 µM throughout. Moreover, the TGI in the assay on SNB-78 CNS and in the assay on UO-31 renal was greater than 100 µM in each case.

On to `COc1ccc(/C=c2\sc3n(c2=O)CCN=3)cc1`, for which the TGI with A549 NSCLC, in the assay with ACHN renal, in the assay on CCRF-CEM leukemia, in the assay on HCT-15 colon, in the assay with HL-60(TB) leukemia and in the assay with HOP-62 NSCLC was greater than 100 µM in each case. The TGI in the assay with KM12 colon, in the assay on KM20L2 colon, in the assay with M14 melanoma, with MALME-3M melanoma, with MOLT-4 leukemia and with NCI-H460 lung was greater than 100 µM throughout. Also, the TGI in the assay with SF-295 CNS, in the assay on SK-MEL-28 melanoma, in the assay with SN12C renal, in the assay on SNB-78 CNS and with UO-31 renal was greater than 100 µM each time.

`Nc1c(S(=O)(=O)O)cc2cc(S(=O)(=O)O)ccc2c1N=Nc1ccc(-c2ccc(N=Nc3c(N)c(S(=O)(=O)O)cc4cc(S(=O)(=O)O)ccc34)c(S(=O)(=O)O)c2)cc1`: the TGI in the assay with A549 NSCLC, in the assay with CCRF-CEM leukemia, with COLO 205 colon, in the assay with HCT-15 colon, in the assay on HL-60(TB) leukemia and in the assay on HOP-62 NSCLC was greater than 100 µM throughout. Also, the TGI is greater than 100 µM in the assay with IGROV1 ovarian; greater than 100 µM in the assay on KM12 colon; greater than 100 µM in the assay on KM20L2 colon; greater than 100 µM in the assay with MALME-3M melanoma; greater than 100 µM with MOLT-4 leukemia; greater than 31.6 µM in the assay on NCI-H460 lung. Further, the TGI with RPMI-8226 leukemia, with SF-295 CNS, in the assay with SK-MEL-28 melanoma, with SN12C renal, in the assay on SNB-78 CNS and in the assay with UO-31 renal was greater than 100 µM in each case.

In the case of `N#C/C(=C1/Sc2c(nc[nH]c2=O)N1c1ccccc1)c1nc2ccccc2[nH]1`, the TGI in the assay with A549 NSCLC, in the assay on ACHN renal, in the assay on CCRF-CEM leukemia, in the assay on COLO 205 colon, in the assay on HCT-15 colon and in the assay on HL-60(TB) leukemia was greater than 100 µM in each case. Besides, the TGI in the assay on HOP-62 NSCLC, in the assay with IGROV1 ovarian, with KM12 colon, in the assay with KM20L2 colon, in the assay on M14 melanoma and in the assay with MALME-3M melanoma was greater than 100 µM each time. Also, the TGI with MOLT-4 leukemia, with NCI-H460 lung, in the assay with RPMI-8226 leukemia, in the assay on SF-295 CNS, in the assay with SK-MEL-28 melanoma and in the assay with SN12C renal was greater than 100 µM throughout. For the same compound, the TGI in the assay with SNB-78 CNS and with UO-31 renal was greater than 100 µM throughout.

On to `Oc1ccc(-c2nc3ccc(Br)cc3s2)cc1`, for which the TGI with A549 NSCLC came out at 68.9 µM; with ACHN renal it was 62.8 µM; in the assay with CCRF-CEM leukemia, 16.5 µM; in the assay with COLO 205 colon, 33.7 µM; in the assay with HCT-15 colon, 67.5 µM; in the assay with HL-60(TB) leukemia it was 56.3 µM. The TGI with IGROV1 ovarian was 33.6 µM; in the assay on KM12 colon it was 41.6 µM; with M14 melanoma, 39.6 µM; in the assay with MALME-3M melanoma it was 90.9 µM; in the assay on MOLT-4 leukemia it was greater than 100 µM; with NCI-H460 lung, 52.8 µM. For the same compound, the TGI in the assay with RPMI-8226 leukemia came to 40.2 µM; in the assay with SF-295 CNS, 33 µM; in the assay with SN12C renal, 49.6 µM; with UO-31 renal, 44.4 µM.
